Earlier results on 1 compound are cited in patent US7129073B2, “Regulation of neuronal function through metabotropic glutamate receptor signaling pathways” (The Rockefeller University, priority 2001, dated 2006).

A word on the IC50: it is the concentration that inhibits the measured activity by half.

For the data set, the target named is T1, T-cell protein-tyrosine phosphatase (TC PTP) (Homo sapiens, UniProt P17706).
T1 sequence (P17706 1-415): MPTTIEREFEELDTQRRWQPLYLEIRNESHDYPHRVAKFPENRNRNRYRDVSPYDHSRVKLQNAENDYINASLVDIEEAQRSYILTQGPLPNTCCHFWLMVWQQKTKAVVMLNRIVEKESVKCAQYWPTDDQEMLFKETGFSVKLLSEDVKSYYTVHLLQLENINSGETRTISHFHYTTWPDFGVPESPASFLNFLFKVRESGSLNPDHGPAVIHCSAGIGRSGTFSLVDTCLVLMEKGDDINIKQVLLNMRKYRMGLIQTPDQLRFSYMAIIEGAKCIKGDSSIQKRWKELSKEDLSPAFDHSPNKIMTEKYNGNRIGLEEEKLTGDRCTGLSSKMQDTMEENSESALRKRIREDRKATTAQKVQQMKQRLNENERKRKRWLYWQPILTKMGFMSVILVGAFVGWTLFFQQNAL
The note with it: cited from earlier work.

With `[Na+].[Na+].[Na+].[O]=[V]([O-])([O-])[O-]` [Na3VO4], the “effect on TC PTP-dependent change in polarization” value (50 μM Na3VO4) was “inhibited”. In addition, the IC50 (FP-based direct binding assay) is 4 nM.
